US20250387504A1, “ANTIBODY-DRUG CONJUGATES OF ANTINEOPLASTIC COMPOUNDS AND METHODS OF USE THEREOF” (Novartis AG, priority 2022, published 2025)

B1: Datopotamab-P5-L12-P7 (antibody, INN chains, looked up, V domains shown)
VH: QVQLVQSGAEVKKPGASVKVSCKASGYTFTTAGMQWVRQAPGQGLEWMGWINTHSGVPKYAEDFKGRVTISADTSTSTAYLQLSSLKSEDTAVYYCARSGFGSSYWYFDVWGQGTLVTVSS
VL: DIQMTQSPSSLSASVGDRVTITCKASQDVSTAVAWYQQKPGKAPKLLIYSASYRYTGVPSRFSGSGSGTDFTLTISSLQPEDFAVYYCQQHYITPLTFGQGTKLEIK
modifications: BCLxLi/TOPOi dual drug-linker P5-L12-P7
B2: Datopotamab-mono-L3-P8 (antibody, INN chains, looked up, V domains shown)
VH: B1 VH
VL: B1 VL
modifications: TOPOi mono-loaded drug-linker L3-P8
B3: Disitamab-P5-L12-P7 (antibody, INN chains, looked up, V domains shown)
VH: EVQLVQSGAEVKKPGATVKISCKVSGYTFTDYYIHWVQQAPGKGLEWMGRVNPDHGDSYYNQKFKDKATITADKSTDTAYMELSSLRSEDTAVYFCARNYLFDHWGQGTLVTVSS
VL: DIQMTQSPSSVSASVGDRVTITCKASQDVGTAVAWYQQKPGKAPKLLIYWASIRHTGVPSRFSGSGSGTDFTLTISSLQPEDFATYYCHQFATYTFGGGTKVEIK
modifications: BCLxLi/TOPOi dual payload P5-L12-P7

Assays:
EOL-1 [1] = assay: CellTiter-Glo proliferation assay, CD74 Milatuzumab MCL-1i and BCL2i ADCs (Example 5); format: cell-based; settings: EOL-1, 5 days, 0.008-150 nM
Experimental: The CD74 Milatuzumab […] […] The next day, free MCL-1 payload (P1) and targeting MCL-1 and BCL-2 ADCs were prepared at 10X in standard growth media. […] Each drug concentration was tested in quadruplets.

AMO-1 [2] = assay: CellTiter-Glo proliferation assay, CD48 MCL-1/BCL-xL and BCL-xL ADCs (Example 6); format: cell-based; settings: Table 3 CD48 ADC, 5 days
Experimental: (§1) The next day, free MCL-1 payload (P1), free BCL-xL payload (P5 and P6) and targeting MCL-1 and BCL-xL ADCs and targeting BCL-xL ADCs were prepared at 10X in standard growth media. […] Each drug concentration was tested in quadruplets.

KMS-27 [3] = assay: as above; format: cell-based; settings: Table 3 CD48 ADC, 5 days; for IC50: KMS-27, 120 h, 0.01-600 nM
Experimental: as §1

EOL-1 [4] = assay: CellTiter-Glo proliferation assay, CD74 MCL-1/BCL-xL and BCL-xL ADCs (Example 6); format: cell-based; settings: Table 4 CD74 ADC, 5 days; for IC50: Homo sapiens, EOL1, 120 h, 0.01-600 nM
Experimental: (§2) The CD74 MCL-li and BCL-xLi antibody drug conjugates and the CD74 BCL-xL antibody drug conjugates were tested against two endogenous cancer cell lines. • Kasumi-6: ATCC No. CRL-2775 cultured in RPMI 1640 medium with 2 mM L-glutamine adjusted to contain 1.5 g/L sodium bicarbonate, 4.5 g/L glucose, 10 mMv HEPES, and 1.0 mM sodium pyruvate supplemented with 2 ng/ml human recombinant granulocyte macrophage colony stimulating factor (GM-CSF) and 20% FBS • EOL-1: DSMZ No. ACC-386 cultured in RPMI-1640+10% FBS
as §1

Kasumi-6 = assay: as above; format: cell-based; settings: Table 4 CD74 ADC, 5 days; for IC50: 120 h, 0.01-600 nM
Experimental: as §2, §1

[5] = system: cancer cell lines expressing CD48, CD74, EphA2, Her2 and PCAD; assay: CellTiter-Glo proliferation assay, summary over the Example 6 cell lines; format: cell-based; settings: representative CD48 and CD74 cancer cell lines; read-out: IC50 values range
Experimental: as §2
The EphA2 antibody drug conjugates were tested against one endogenous cancer cell line. • HCC-38: ATCC No. CRL-2314 cultured in RPMI-1640+10% FBS
as §1

KHM-1B = assay: CellTiter-Glo proliferation assay, CD48 MCL-1 and BCL-2 ADCs (Example 4); settings: 120 h, read-out: KHM-1B IC50 (nM)
Experimental: (§3) The ability of the MCL-1 and BCL-2 antibody drug conjugates to inhibit cell proliferation and survival was assessed using the Promega CellTiter-Glo® proliferation assay.
(§4) Cell lines were cultured in media that is optimal for their growth at 5% CO2, 37° C. in a tissue culture incubator. Prior to seeding for the proliferation assay, the cells were split at least 2 days before the assay to ensure optimal growth density. On the day of seeding, cell viability and cell density were determined using a cell counter (Vi-Cell XR Cell Viability Analyzer, Beckman Coulter). […] Cells were seeded at a density of 1,000 cells per well in 45 μL of standard growth media. Plates were incubated at 5% CO2, 37° C. overnight in a tissue culture incubator. The next day, free MCL-1 and BCL-2 payloads, targeting MCL-1 and BCL-2 ADCs, and non-targeting isotype ADCs free MCL-1 and BCL-2 payloads, were prepared at 10× in standard growth media. […] Each drug concentration was tested in quadruplets. Plates were incubated at 5% CO2, 37° C. for 5 days in a tissue culture incubator, after which cell viability was assessed through the addition of 25 L μof CellTiter Glo® (Promega, cat #G7573), a reagent which lyses cells and measures total adenosine triphosphate (ATP) content. Plates were incubated at room temperature for 10 minutes to stabilize luminescent signals prior to reading using a luminescence reader (EnVision Multilabel Plate Reader, PerkinElmer). To evaluate the effect of the drug treatments, luminescent counts from wells containing untreated cells (100% viability) were used to normalize treated samples. […] IC50 and Amax values were extrapolated from the resultant curves.

KMS-27 [6] = assay: as above; settings: KMS-27, 120 h, read-out: KMS-27 IC50 (nM)
Experimental: as §3, §4

KMS-21-BM = assay: as above; settings: 120 h, read-out: KMS-21-BM IC50 (nM)
Experimental: as §3, §4

NCI-H929 = assay: as above; settings: Homo sapiens, NCI-H929, 120 h, read-out: NCI-H929 IC50 (nM)
Experimental: as §3, §4

RL = assay: as above; settings: Homo sapiens, 120 h, read-out: RL IC50 (nM)
Experimental: as §3, §4

AMO-1 [7] = assay: as above; settings: Homo sapiens, AMO1, 120 h, read-out: AMO-1 IC50 (nM)
Experimental: as §3, §4

WSU-DLCL2 = assay: as above; settings: Homo sapiens, WSUDLCL2, 120 h, read-out: WSU-DLCL2 IC50 (nM)
Experimental: as §3, §4

MOLP-8 = assay: as above; settings: Homo sapiens, MOLP-8, 120 h, read-out: MOLP-8 IC50 (nM)
Experimental: as §3, §4

KE-97 = assay: as above; settings: KE-97, 120 h, read-out: Ke97 IC50 (nM)
Experimental: as §3, §4

[8] = system: T-ALL (T-cell Acute Lymphoblastic Leukemia) and different types of solid tumors; settings: cited from earlier work
[9] = system: hematological malignancies and solid tumors; settings: several hematological malignancies and solid tumors; cited from earlier work
lymphoid malignancies = settings: cited from earlier work
lymphocyte proliferation = settings: in vitro; cited from earlier work
[10] = system: animal models of arthritis and lupus; settings: mice; cited from earlier work
allogeneic T-cell = settings: in vitro; cited from earlier work
[11] = system: allogeneic T- and B-cell responses; settings: after skin transplantation; cited from earlier work
TROP2 (human) = TROP2 (human) (UniProt P09758); assay: cell-based or functional assay
TROP2 (human), sequence (P09758 27-323): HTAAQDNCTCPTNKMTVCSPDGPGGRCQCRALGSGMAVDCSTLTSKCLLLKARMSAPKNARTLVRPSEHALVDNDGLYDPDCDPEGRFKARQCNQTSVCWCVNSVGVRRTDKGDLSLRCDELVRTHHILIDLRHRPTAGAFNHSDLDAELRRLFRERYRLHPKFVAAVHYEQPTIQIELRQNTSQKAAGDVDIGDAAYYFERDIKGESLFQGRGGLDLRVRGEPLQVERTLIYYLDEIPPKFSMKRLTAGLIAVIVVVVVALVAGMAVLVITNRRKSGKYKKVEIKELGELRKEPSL

HER2 = HER2 (UniProt P04626); assay: cell-based or functional assay

IC50 (NCI-H929) | Molecule | IC50 (KHM-1B) | IC50 (KMS-27 [6]) | IC50 (KMS-21-BM) | IC50 (RL) | IC50 (AMO-1 [7]) | IC50 (WSU-DLCL2) | IC50 (MOLP-8) | IC50 (KE-97) | further results
5.17 nM | COc1ccccc1-c1nccc(COc2ccccc2C[C@@H](Oc2ncnc3sc(-c4ccc(F)cc4)c(-c4ccc(OCCN5CCN(C)CC5)c(Cl)c4C)c23)C(=O)O)n1 [P1] | 1.62 nM | 13.3 nM | 1.66 nM | > 250 nM | 4.7 nM | 41.1 nM | 6.17 nM | > 250 nM | Amax (Span) (EOL-1 [1]): 88.6; IC50 (EOL-1 [1]; Homo sapiens, EOL1, 120 h): 0.338 nM; IC50 (AMO-1 [2]; Homo sapiens, AMO1, 120 h, 0.01-600 nM): 3.8 nM; AMO-1 Amax (Span) (AMO-1 [2]): 95.8; IC50 (KMS-27 [3]): 5.23 nM; KMS-27 Amax (Span) (KMS-27 [3]): 96.7; IC50 (EOL-1 [4]): 0.685 nM; EOL-1 Amax (Span) (EOL-1 [4]): 98.4; IC50 (Kasumi-6): 36 nM; Kasumi-6 Amax (Span) (Kasumi-6): 111.4; IC50 [5]: 0.685 to 36 nM
– | Cc1c(Nc2nc3ccccc3s2)nnc2c1CCCN2c1nc(C(=O)O)c(CCCOc2ccc(C#CCN(C)C)cc2F)s1 [P6, 2-[3-(1,3-Benzothiazol-2-ylamino)-4-methyl-6,7-dihydro-SH-pyrido[2,3-c]pyridazin-8-yl]-5-[3-[4-[3-(dimethylamino)prop-1-ynyl]-2-fluoro-phenoxy]propyl]thiazole-4-carboxylic acid] | – | – | – | – | – | – | – | – | IC50 (KMS-27 [3]): 7.89 nM; KMS-27 Amax (Span) (KMS-27 [3]): 93.7; IC50 (EOL-1 [4]): < 10 nM; IC50 (Kasumi-6): < 10 nM
– | Cc1c(Nc2nc3ccccc3s2)nnc2c1CCCN2c1ccc(-c2cnn(CC34CC5(C)CC(C)(C3)CC(OCCNCCCO)(C5)C4)c2C)c(C(=O)O)n1 [P5, 6-[3-(1,3-benzothiazol-2-ylamino)-4-methyl-6,7-dihydro-5H-pyrido[2,3-c]pyridazin-8-yl]-3-[1-[[3-[2-(3-hydroxypropylamino)ethoxy]-5,7-dimethyl-1-adamantyl]methyl]-5-methyl-pyrazol-4-yl]pyridine-2-carboxylic acid] | – | – | – | – | – | – | – | – | IC50 (KMS-27 [3]): < 5 nM; IC50 (EOL-1 [4]): 0.488 nM; EOL-1 Amax (Span) (EOL-1 [4]): 94.9; IC50 (Kasumi-6): 11.9 nM; Kasumi-6 Amax (Span) (Kasumi-6): 84.5
> 250 nM | Cc1c(C(=O)N(c2ccc(O)cc2)c2cnn(C(F)F)c2)cc(-c2cc3c(cc2C(=O)N2Cc4ccccc4C[C@H]2C)CN(C(=O)Cc2ccc(OCCN4CCOCC4)cc2)CC3)n1C [P3] | > 10 nM | 3.91 nM | > 100 nM | 11.8 nM | > 250 nM | 5.41 nM | > 250 nM | > 250 nM | –
– | Cc1c(-c2ccc(N3CCc4cccc(C(=O)Nc5nc6ccccc6s5)c4C3)nc2C(=O)O)cnn1CC12CC3CC(CC(C3)C1)C2 [A-1331852] | – | – | – | – | – | – | – | – | in vivo activity in pre-clinical models [8]: in vivo activity
> 250 nM | Cc1c(N(C(=O)c2cc(-c3cc4c(cc3C(=O)N3Cc5ccccc5C[C@H]3C)CN(C(=O)Cc3ccc(OCCN5CCOCC5)cc3)CC4)n(C)c2C)c2ccc(O)cc2)cc(C#N)n1C [P4, N-(5-cyano-1,2-dimethyl-1H-pyrrol-3-yl)-N-(4-hydroxyphenyl)-1,2-dimethyl-5-{7-[(3R)-3-methyl-1,2,3,4-tetrahydroisoquinoline-2-carbonyl]-2-(2-{4-[2-(morpholin-4-yl)ethoxy]phenyl}acetyl)-1,2,3,4-tetrahydroisoquinolin-6-yl}-1H-pyrrole-3-carboxamide] | > 10 nM | 0.999 nM | > 100 nM | 1.26 nM | > 250 nM | 4.17 nM | > 250 nM | > 250 nM | –
– | CC1(C)CCC(c2ccc(Cl)cc2)=C(CN2CCN(c3ccc(C(=O)NS(=O)(=O)c4ccc(N[C@H](CCN5CCOCC5)CSc5ccccc5)c(S(=O)(=O)C(F)(F)F)c4)cc3)CC2)C1 [ABT-263, navitoclax] | – | – | – | – | – | – | – | – | activity in pre-clinical models [9]: shown activity; antitumor activity in clinical studies (lymphoid malignancies): objective antitumor activity
> 250 nM | Cc1c(N(C(=O)c2cc(-c3cc(Cl)ccc3C(=O)N3Cc4ccccc4C[C@H]3CCCN(C)C)n(C)c2C)c2ccc(O)cc2)cc(C#N)n1C [P2, 5-[5-chloro-2-[(3R)-3-[3-(dimethylamino)propyl]-3,4-dihydro-1H-isoquinoline-2-carbonyl]phenyl]-N-(5-cyano-1,2-dimethyl-pyrrol-3-yl)-N-(4-hydroxyphenyl)-1,2-dimethyl-pyrrole-3-carboxamide] | > 10 nM | 0.316 nM | > 100 nM | 6.26 nM | > 250 nM | 3.77 nM | > 250 nM | > 250 nM | –
– | CN(C)CC[C@H](CSc1ccccc1)Nc1ccc(S(=O)(=O)NC(=O)c2ccc(N3CCN(Cc4ccccc4-c4ccc(Cl)cc4)CC3)cc2)cc1[N+](=O)[O-] [ABT-737] | – | – | – | – | – | – | – | – | inhibition of lymphocyte proliferation (lymphocyte proliferation): potent inhibition; disease severity [10]: significant decrease in disease severity; allogeneic T-cell activation, proliferation, and cytotoxicity (allogeneic T-cell): prevented; allogeneic T- and B-cell responses [11]: inhibited
– | CN(C)CC#Cc1ccc(OCCCc2sc(N3CCc4cccc(C(=O)Nc5nc6ccccc6s5)c4C3)nc2C(=O)O)c(F)c1 [A-1155463] | – | – | – | – | – | – | – | – | in vivo activity in pre-clinical models [8]: in vivo activity
– | B1 | – | – | – | – | – | – | – | – | IC50 (nM), NCI-H441 (TROP2 (human)): 0.692 nM
– | B2 | – | – | – | – | – | – | – | – | IC50 (nM), NCI-H441 (TROP2 (human)): < 5 nM
– | B3 | – | – | – | – | – | – | – | – | IC50 (nM), inhibition of cell proliferation and survival (CellTiter-Glo), UACC-812 cells (HER2): 0.191 nM
